Here are results for 21 compounds from US20160052926A1, “NOVEL PYRIMIDINE AND PYRIDINE COMPOUNDS AND USAGE THEREOF” (HUTCHISON MEDIPHARMA LIMITED, priority 2013, published 2016).

Each structure is given as a SMILES string.

Assay [1] concerns the target Recombinant human FGFR1 (Homo sapiens, UniProt P11362). Description: Transcreener Kinase Assay of FGFR1. The settings on record: read-out: FGFR1 (FP) IC50. Format: biochemical.
For assay [2], the system named is KG-1. Description: Cellular Proliferation Assay (Cell Counting Kit-8), KG-1. It is filed as cell-based. The settings on record: Homo sapiens, KG1 cells, 72 hours. In a few lines:
(§1)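 Proliferation was read as OD at 450 nm after 1 h with CCK-8, following 72 h drug exposure at 37 °C, 5% CO2. Inhibition was calculated against cells in 0.5% DMSO minus medium blank, and the 50% point reported. The compound series (10–0.004 μM, pre-addition, in 5% DMSO) was added one day after plating KG-1, SNU-16 and RT-112 at 30,000, 5,000 and 1,000 cells/well respectively.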
A general note: Formazan colour is commonly taken as a measure of viable cells.

The target of assay [3] is FGFR3 kinase (Homo sapiens, UniProt P22607). Description: Z-Lyte Kinase Assay of FGFR3. Format: biochemical. The procedure, abridged: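 FRET peptide-cleavage format: 1 h kinase reaction at RT (25-30[…]), then 1 h protease development, then stop and dual-emission read (Ex400, Em445/520 nm). Working solutions: kinase 0.7 μg/ml, Tyr 4 peptide 4 μM, ATP 300 uM in 1.33× buffer; eight compound concentrations from 1 μM, 2% DMSO final.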
Sequence of FGFR3 kinase (P22607 23-806): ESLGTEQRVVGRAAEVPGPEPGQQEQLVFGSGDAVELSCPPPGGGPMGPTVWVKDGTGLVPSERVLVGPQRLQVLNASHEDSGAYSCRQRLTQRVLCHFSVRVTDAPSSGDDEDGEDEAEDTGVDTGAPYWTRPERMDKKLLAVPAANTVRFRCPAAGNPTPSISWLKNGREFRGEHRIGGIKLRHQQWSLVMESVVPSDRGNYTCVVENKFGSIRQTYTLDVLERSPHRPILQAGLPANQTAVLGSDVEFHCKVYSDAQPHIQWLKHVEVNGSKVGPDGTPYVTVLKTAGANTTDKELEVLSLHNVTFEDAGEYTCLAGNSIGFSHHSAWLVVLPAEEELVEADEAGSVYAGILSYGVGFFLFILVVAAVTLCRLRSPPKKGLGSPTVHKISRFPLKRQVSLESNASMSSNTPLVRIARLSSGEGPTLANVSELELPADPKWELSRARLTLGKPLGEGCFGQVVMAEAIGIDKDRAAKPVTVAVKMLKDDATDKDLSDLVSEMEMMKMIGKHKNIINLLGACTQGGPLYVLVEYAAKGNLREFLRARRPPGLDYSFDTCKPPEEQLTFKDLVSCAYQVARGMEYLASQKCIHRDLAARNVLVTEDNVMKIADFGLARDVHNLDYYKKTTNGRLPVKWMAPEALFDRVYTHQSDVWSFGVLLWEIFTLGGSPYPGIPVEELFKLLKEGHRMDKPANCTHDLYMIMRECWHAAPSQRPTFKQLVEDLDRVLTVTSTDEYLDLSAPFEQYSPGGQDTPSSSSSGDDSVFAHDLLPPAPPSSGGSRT

Assay [4] has as its target Recombinant human FGFR2 (Homo sapiens, UniProt P21802). Description: Transcreener Kinase Assay of FGFR2. Format: biochemical. The note with it: read-out: FGFR2 (FP) IC50.
Assay [5] concerns RT-112. Description: Cellular Proliferation Assay (Cell Counting Kit-8), RT-112. Format: cell-based. The settings on record: Homo sapiens, RT-112 cells, 72 hours. In a few lines: as §1
Assay [6] deals with SNU-16. Description: Cellular Proliferation Assay (Cell Counting Kit-8), SNU-16. It is filed as cell-based. The settings on record: Homo sapiens, SNU-16 cells, 72 hours. In a few lines:
as §1

Sequence of Recombinant human FGFR2 (P21802 22-821): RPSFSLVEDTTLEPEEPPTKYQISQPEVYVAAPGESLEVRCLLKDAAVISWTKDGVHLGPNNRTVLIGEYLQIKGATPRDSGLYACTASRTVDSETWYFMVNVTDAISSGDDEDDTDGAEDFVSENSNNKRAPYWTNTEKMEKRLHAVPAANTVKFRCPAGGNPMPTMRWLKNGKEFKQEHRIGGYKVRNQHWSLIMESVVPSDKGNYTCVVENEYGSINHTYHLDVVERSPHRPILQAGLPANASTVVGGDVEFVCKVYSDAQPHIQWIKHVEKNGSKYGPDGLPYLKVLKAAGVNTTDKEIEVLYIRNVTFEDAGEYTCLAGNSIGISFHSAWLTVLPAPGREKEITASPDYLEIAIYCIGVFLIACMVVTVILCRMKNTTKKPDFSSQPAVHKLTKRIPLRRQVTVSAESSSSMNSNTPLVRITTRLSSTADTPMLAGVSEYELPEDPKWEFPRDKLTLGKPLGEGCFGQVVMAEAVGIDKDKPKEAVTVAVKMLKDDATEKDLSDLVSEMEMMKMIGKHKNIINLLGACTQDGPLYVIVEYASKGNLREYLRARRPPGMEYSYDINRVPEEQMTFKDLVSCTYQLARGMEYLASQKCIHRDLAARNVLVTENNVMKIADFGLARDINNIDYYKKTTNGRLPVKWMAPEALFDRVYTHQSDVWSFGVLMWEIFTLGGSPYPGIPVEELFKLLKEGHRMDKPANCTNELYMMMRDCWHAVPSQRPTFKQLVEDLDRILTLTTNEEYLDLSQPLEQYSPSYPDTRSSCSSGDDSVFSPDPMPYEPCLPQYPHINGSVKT
Sequence of Recombinant human FGFR1 (P11362 22-822): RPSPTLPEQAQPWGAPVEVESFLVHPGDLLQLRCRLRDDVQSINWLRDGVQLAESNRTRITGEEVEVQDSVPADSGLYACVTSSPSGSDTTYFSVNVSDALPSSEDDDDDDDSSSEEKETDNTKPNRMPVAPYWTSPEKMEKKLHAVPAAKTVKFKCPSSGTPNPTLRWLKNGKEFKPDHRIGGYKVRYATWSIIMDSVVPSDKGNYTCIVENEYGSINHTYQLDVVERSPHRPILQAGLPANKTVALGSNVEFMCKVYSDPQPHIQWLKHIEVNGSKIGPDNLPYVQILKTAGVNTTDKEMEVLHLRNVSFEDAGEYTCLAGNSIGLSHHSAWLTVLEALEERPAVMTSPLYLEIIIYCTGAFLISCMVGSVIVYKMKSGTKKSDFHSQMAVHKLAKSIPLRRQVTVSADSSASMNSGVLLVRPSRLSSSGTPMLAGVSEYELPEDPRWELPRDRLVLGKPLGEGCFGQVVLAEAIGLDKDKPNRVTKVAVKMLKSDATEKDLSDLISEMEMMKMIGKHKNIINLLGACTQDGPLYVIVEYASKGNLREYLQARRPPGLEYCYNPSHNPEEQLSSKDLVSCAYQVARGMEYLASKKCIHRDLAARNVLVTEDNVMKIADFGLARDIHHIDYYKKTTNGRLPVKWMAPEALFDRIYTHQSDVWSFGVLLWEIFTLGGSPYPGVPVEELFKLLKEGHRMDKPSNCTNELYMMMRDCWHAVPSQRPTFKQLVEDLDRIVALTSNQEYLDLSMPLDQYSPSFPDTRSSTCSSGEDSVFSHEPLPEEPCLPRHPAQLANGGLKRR

As to `CCN(CC)CCn1cc(Nc2ncc(CCc3cc(C(=O)NC)cc(OC)c3Cl)cn2)cn1` [Compound 86], the half-inhibitory concentration (IC50) in assay [1] is 0.017 µM; in assay [2] it was 0.042 µM; in assay [3], 0.01 µM; in assay [4], 0.01 µM; in assay [5] it was 0.012 µM; in assay [6], 0.016 µM.

`CNC(=O)c1cc(CCc2cnc(Nc3cnn(C[C@H](C)O)c3)nc2)c(F)c(OC)c1` [Compound 32]: the IC50 worked out at 0.018 µM in assay [1]; 0.057 µM in assay [2]; 0.005 µM in assay [3]; 0.006 µM in assay [4]; 0.104 µM in assay [5]; 0.03 µM in assay [6].

As to `CNC(=O)c1cc(COc2cnc(Nc3ccc(N4C[C@@H](C)N[C@@H](C)C4)cc3)nc2)c(Cl)c(OC)c1` [Compound 186, 4-chloro-3-(((2-((4-((3S,5R)-3,5-dimethylpiperazin-1-yl)phenyl)amino)pyrimidin-5-yl)oxy)methyl)-5-methoxy-N-methylbenzamide], the concentration for half-maximal inhibition (IC50) in assay [1] was found to be 0.005 µM; in assay [2], 0.01 µM; in assay [3] it was 0.005 µM; in assay [4], 0.004 µM; in assay [5] it was 0.007 µM; in assay [6], 0.007 µM.

`CCN1CC[C@@H](n2cc(Nc3ncc(CCc4cc(C(=O)NC)cc(OC)c4F)cn3)cn2)C1` [Compound 171]: the IC50 was 0.043 µM in assay [1]; 0.128 µM in assay [2]; 0.05 µM in assay [3]; 0.041 µM in assay [4]; 0.655 µM in assay [5]; 0.048 µM in assay [6].

With `CNC(=O)c1cc(COc2cnc(Nc3ccc(O)cc3)nc2)c(F)c(OC)c1` [Compound 211], the concentration for half-maximal inhibition (IC50) stood at 0.018 µM in assay [1]; 0.084 µM in assay [2]; 0.021 µM in assay [3]; 0.009 µM in assay [4]; 0.163 µM in assay [5]; 0.053 µM in assay [6].

On to `CNC(=O)c1cc(CCc2cnc(Nc3cnn([C@H]4CCN(C)C4)c3)nc2)c(F)c(OC)c1` [Compound 168], for which the IC50 in assay [1] amounted to 0.016 µM; in assay [2] it was 0.032 µM; in assay [3], 0.015 µM; in assay [4] it was 0.011 µM; in assay [5], 0.414 µM; in assay [6], 0.016 µM.

For the compound `CNC(=O)c1cc(CCc2cnc(Nc3cnn(CCN4CCOCC4)c3)nc2)c(F)c(OC)c1` [Compound 139], the IC50 is 0.012 µM in assay [1]; 0.064 µM in assay [2]; 0.008 µM in assay [3]; 0.006 µM in assay [4]; 0.146 µM in assay [5]; 0.022 µM in assay [6].

For `CNC(=O)c1cc(CCc2cnc(Nc3ccc4nc(C)oc4c3)nc2)c(F)c(OC)c1` [Compound 34], the IC50 in assay [1] was determined as 0.033 µM; in assay [2], 0.132 µM; in assay [3] it was 0.046 µM; in assay [4], 0.013 µM; in assay [5], 0.308 µM; in assay [6] it was 0.058 µM.

Take `CNC(=O)c1cc(CCc2ccc(Nc3cnn(C)c3)nc2)c(F)c(OC)c1` [Compound 103]: the IC50 was determined as 0.032 µM in assay [1]; 0.138 µM in assay [2]; 0.047 µM in assay [3]; 0.021 µM in assay [4]; 0.659 µM in assay [5]; 0.139 µM in assay [6].

As for `CNC(=O)c1cc(COc2cnc(Nc3ccc(N4C[C@@H](C)N[C@@H](C)C4)nc3)nc2)c(Cl)c(OC)c1` [Compound 197], the 50% inhibitory concentration (IC50) came to 0.008 µM in assay [1]; 0.026 µM in assay [2]; 0.009 µM in assay [3]; 0.007 µM in assay [4]; 0.025 µM in assay [5]; 0.008 µM in assay [6].

Take `CNC(=O)c1cc(CCc2cnc(Nc3ccc(N4CCNC(C)(C)C4)cc3)nc2)c(Cl)c(OC)c1` [Compound 200]: the concentration for half-maximal inhibition (IC50) in assay [1] was determined as 0.009 µM; in assay [2], 0.091 µM; in assay [3], 0.006 µM; in assay [4], 0.006 µM; in assay [5], 0.034 µM; in assay [6], 0.02 µM.

On to `CONC(=O)c1cc(CCc2cnc(Nc3cnn(CCO)c3)nc2)cc(OC)c1` [Compound 108], for which the IC50 in assay [1] worked out at 0.005 µM; in assay [2], 0.11 µM; in assay [3] it was 0.01 µM; in assay [4], 0.003 µM; in assay [5], 0.562 µM; in assay [6] it was 0.112 µM.

`CCN1CCN(c2ccc(Nc3ncc(CCc4cc(C(=O)NOC)cc(OC)c4F)cn3)cc2)CC1` [Compound 55]: the half-inhibitory concentration (IC50) stood at 0.002 µM in assay [1]; 0.003 µM in assay [2]; 0.002 µM in assay [3]; 0.003 µM in assay [4]; 0.016 µM in assay [5]; 0.004 µM in assay [6].

`CCN1CCC(n2cc(Nc3ncc(CCc4cc(C(=O)NC)cc(OC)c4Cl)cn3)cn2)CC1` [Compound 178]: the IC50 in assay [1] is 0.014 µM; in assay [2], 0.072 µM; in assay [3], 0.018 µM; in assay [4], 0.015 µM; in assay [5], 0.186 µM; in assay [6], 0.027 µM.

Consider `CNC(=O)c1cc(CCc2cnc(Nc3ccc(OC)nc3)nc2)c(F)c(OC)c1` [Compound 30], for which the half-inhibitory concentration (IC50) in assay [1] amounted to 0.029 µM; in assay [2], 0.055 µM; in assay [3], 0.04 µM; in assay [4] it was 0.01 µM; in assay [5], 0.241 µM; in assay [6], 0.068 µM.

`CNC(=O)c1cc(CCc2cnc(Nc3cnn(CCS(C)(=O)=O)c3)nc2)c(Cl)c(OC)c1` [Compound 153]: the IC50 stood at 0.015 µM in assay [1]; 0.177 µM in assay [2]; 0.016 µM in assay [3]; 0.007 µM in assay [4]; 0.24 µM in assay [5]; 0.059 µM in assay [6].

Regarding `CNC(=O)c1cc(CCc2cnc(Nc3ccnc(OC)c3)nc2)c(F)c(OC)c1` [Compound 62], the half-inhibitory concentration (IC50) is 0.02 µM in assay [1]; 0.046 µM in assay [2]; 0.033 µM in assay [3]; 0.009 µM in assay [4]; 0.152 µM in assay [5]; 0.049 µM in assay [6].

With `CNC(=O)c1cc(CCc2cnc(Nc3cnn(CCOC)c3)nc2)c(F)c(OC)c1` [Compound 120], the IC50 in assay [1] stood at 0.015 µM; in assay [2], 0.032 µM; in assay [3], 0.017 µM; in assay [4], 0.007 µM; in assay [5] it was 0.165 µM; in assay [6], 0.031 µM.

On to `CNC(=O)c1cc(CCc2cnc(Nc3ccc(C(=O)N4CCN(C)CC4)cc3)nc2)c(Cl)c(OC)c1` [Compound 90], for which the IC50 in assay [1] worked out at 0.011 µM; in assay [2] it was 0.031 µM; in assay [3], 0.007 µM; in assay [4] it was 0.005 µM; in assay [5] it was 0.026 µM; in assay [6], 0.009 µM.

Turning to `CNC(=O)c1cc(CCc2cnc(Nc3cnn(Cc4ccccn4)c3)nc2)c(F)c(OC)c1` [Compound 142], the 50% inhibitory concentration (IC50) was 0.02 µM in assay [1]; 0.06 µM in assay [2]; 0.028 µM in assay [3]; 0.011 µM in assay [4]; 0.208 µM in assay [5]; 0.028 µM in assay [6].

Turning to `CNC(=O)c1cc(CCc2cnc(Nc3cnn(C4CCN(C)CC4)c3)nc2)c(F)c(OC)c1` [Compound 173], the concentration for half-maximal inhibition (IC50) in assay [1] amounted to 0.008 µM; in assay [2], 0.041 µM; in assay [3], 0.028 µM; in assay [4] it was 0.007 µM; in assay [5], 0.135 µM; in assay [6], 0.02 µM.

In general, IC50 refers to the point on the concentration scale where inhibition reaches its midpoint.
